Assay results published in patent US11357777B2, “Use of sGC stimulators for the treatment of nonalcoholic steatohepatitis (NASH)” (Cyclerion Therapeutics, Inc., priority 2016, dated 2022).

System: mice fed a high-fat diet deficient in choline and methionine
Assay: Mouse on a methionine/choline deficient high-fat diet (MCD-HFD)
Assay type: in vivo
Settings: for macrophage numbers, inflammatory infiltrate by F4/80 immunohistochemistry: statistically significant; for levels of mRNA expression for all markers of liver fibrosis / levels of mRNA expression for all markers of liver inflammation: vs control Group II
Description: The study was performed in mice fed a high-fat diet deficient in choline and methionine (MCD-HFD or MCD diet), a model that reproduces the clinical manifestations of human steatohepatitis and fibrosis in mice. These mice received the sGC stimulator Compound B prophylactically (at two doses, 1 and 3 mg/kg/day in the food), starting at the same time as the start of the administration of the high-fat diet deficient in choline/methionine, and before animals started manifesting clinical signs of steatohepatitis.
The prophylactic treatment with Compound B proceeded for a total of 9 weeks simultaneously with the high-fat diet deficient in choline/methionine administration. At the end of the treatment, the degree of inflammation was assessed in the liver by determining levels of gene expression for IL-6, TNFα, IL-10, MCP-1β, IL-1 and IL-Ira, by real-time PCR. Inflammation levels were also determined by assessing inflammatory infiltrate by F4/80 immunohistochemistry, and necroinflammation was assessed by hematoxylin-eosin staining. Liver fibrosis was determined by measuring levels of gene expression for collagen type I and II, MMP-2, TIMP-1 and TGFβ1 at the mRNA level. Histological analysis was carried out of tissue sections stained with Masson's trichrome and Sirius Red.
Group I (n=5): Chow Control group received a matching sucrose diet equivalent to the high-fat diet (HFD) for 9 weeks.
Group II (n=15): Choline/methionine deficient HFD Control group (MCD control group) received a Choline/methionine deficient HFD diet for 9 weeks.
Group III (n=10): Choline/methionine deficient HFD for 9 weeks supplemented with Compound B dosed in food (1 mg/kg body weight/day). (IW1 group)
Group IV (n=10): Choline/methionine deficient HFD for 9 weeks supplemented with Compound B dosed in food (3 mg/kg body weight/day). (IW3 group)
After treatment, animals were sacrificed and liver and blood samples were collected. The effects of the sGC stimulator on liver weight, steatosis, inflammation and fibrosis were evaluated as follows:
Total RNA was obtained with the RNAqueous kit. RNA concentrations were assessed in a UV-spectrophotometer and the RNA's integrity tested on a 6000 LabChip in a 2100 Bioanalyzer (Agilent Technologies, Palo Alto, Calif.). First strand cDNA synthesis was performed by incubating 1 μg of total RNA with 2.5 μl of 10×RT buffer, 1 μl of 25×dNTPs, 2.5 μl of 10× Primers and 1.25 μl of reverse transcriptase (25 μl final volume) for 10 minutes at 25° C. following 2 hours at 37° C. in a ABI thermal cycler. Ready-to-use primer and probe sets pre-developed by Applied Biosystems (TaqMan Gene Expression Assays) were used to quantify gene expression using R-actin as an endogenous control. Briefly, PCR reactions were performed in duplicate using the Universal TaqMan 2×PCR mastermix in a volume of 20 μl containing 1.25 μl cDNA. Real-time quantitative PCR was performed with an ABI Prism 7900 Sequence Detection System (Applied Biosystems) using the fluorescent TaqMan methodology. Real time PCR results were analyzed with the Sequence Detector Software version 2.1 (Applied Biosystems) and relative quantitation of gene expression was performed using the 2-ΔΔ Ct method. (User Bulletin #2; http://docs.appliedbiosystems.com/pebiodocs/04303859.pdf).
Tissue samples fixed in 10% formalin were embedded in paraffin, cut into 5 μm sections, stained with H&E and analyzed by a registered pathologist unaware of the treatments. Tissue sections were incubated for 10 minutes in 0.5% thiosemicarbazide and stained in 0.1% Sirius Red F3B in saturated picric acid for 1 hour, and subsequently washed with an acetic acid solution (0.5%). Masson's trichrome staining was performed at the Pathology Department of the Hospital Clinic, Barcelona, Spain. […]

[1] = 3 mg/kg in food, 9 weeks (Group IV) vs control Group II
[2] = Group III (1 mg/kg/day), 9 weeks
[3] = Group IV (3 mg/kg/day), 9 weeks

## OC(CNc1nc(-c2cc(-c3ccon3)n(Cc3ccccc3F)n2)ncc1F)(C(F)(F)F)C(F)(F)F [Compound B]
1 mg/kg (Group III) vs control group II
  Total NAS: reduced
1 mg/kg in food, 9 weeks (Group III)
  fibrosis as detected using Picrosirius Red staining: significantly reduced
3 mg/kg (Group IV) vs control group II
  Total NAS: reduced
3 mg/kg in food, 9 weeks (Group IV)
  fibrosis as detected using Picrosirius Red staining: significantly reduced
[1]
  liver tissue weight versus total body weight ratio: statistically significant reduction
  percentage of white adipose tissue in the liver: statistically significant reduction
1 and 3 mg/kg in food, 9 weeks, FIG. 4
  reduction of fibrosis by analysis of trichrome stain and α-SMA deposition: confirmed
Group III (1 mg/kg) vs control group II
  macrophage numbers, inflammatory infiltrate by F4/80 immunohistochemistry: decrease
[2]
  levels of mRNA expression for all markers of liver fibrosis: reduced in a statistically significant manner
  levels of mRNA expression for all markers of liver inflammation: reduced in a statistically significant manner
Group IV (3 mg/kg) vs control group II
  macrophage numbers, inflammatory infiltrate by F4/80 immunohistochemistry: decrease
[3]
  levels of mRNA expression for all markers of liver fibrosis: reduced in a statistically significant manner
  levels of mRNA expression for all markers of liver inflammation: reduced in a statistically significant manner
